According to patent US9556158B2, “Fungicidal 3-[(pyridin-2-ylmethoxyimino)(phenyl)methyl]-2-substituted-1,2,4-oxadiazol-5(2H)-one derivatives” (BAYER INTELLECTUAL PROPERTY GMBH, priority 2011, dated 2017):

Experiments:
[1] = pH 2.7, LogP, HPLC on reversed phase columns, pH 2.7, 0.1% formic acid in water / acetonitrile gradient
Experimental: Measurement of log P values was performed according EEC directive 79/831 Annex V.A8 by HPLC (High Performance Liquid Chromatography) on reversed phase columns with the following method:
Measurement of LC-MS was done at pH 2.7 with 0.1% formic acid in water and with acetonitrile (contains 0.1% formic acid) as eluent with a linear gradient from 10% acetonitrile to 95% acetonitrile.
Calibration was done with not branched alkan2-ones (with 3 to 16 carbon atoms) with known log P-values (measurement of log P values using retention times with linear interpolation between successive alkanones). lambda-maX-values were determined using UV-spectra from 200 nm to 400 nm and the peak values of the chromatographic signals.

Botrytis cinerea = test: Example B: in vivo preventive test on Botrytis cinerea (grey mould); details: 500 ppm, preventive spray on gherkin plants, contamination after 24 hours, grading 4 to 5 days after contamination vs control plants
Experimental: In Vivo Preventive Test on Botrytis Cinerea (Grey Mould)
The active ingredients tested are prepared by homogenization in a mixture of acetone/tween/DMSO and then diluted with water to obtain the desired active material concentration.
Gherkin plants (“Vert petit de Paris” variety), sown in starter cups on a 50/50 peat soil-pozzolana substrate and grown at 24° C., are treated at the Z11 cotyledon stage by spraying with the active ingredient prepared as described above. Plants, used as controls, are treated with the mixture of acetone/tween/DMSO/water not containing the active material.
After 24 hours, the plants are contaminated by spraying the cotyledons with an aqueous suspension of cryopreserved Botrytis cinerea spores (50 000 spores per ml). The spores are suspended in a nutrient solution composed of 10 g/L of PDB, 50 g/L of D-Fructose, 2 g/L of NH4NO3 and 1 g/L of KH2PO4. The contaminated gherkin plants are incubated at 17° C. and at 90% relative humidity.
Grading (% of efficacy) is carried out 4 to 5 days after the contamination, in comparison with the control plants.
(§1) Under these conditions, good (at least 70%) or total protection is observed at a dose of 500 ppm with the following compounds: […]

Pyricularia oryzae = test: whole plant or invertebrate; format: in vivo; details: 144 h, read-out: % efficacy
Phytophthora infestans [2] = test: whole plant or invertebrate; format: in vivo; details: in Solanum lycopersicum, 120 h, read-out: % efficacy
Phytophthora infestans [3] = format: in vivo; details: 100 ppm of active ingredient, preventive spray, inoculation one day after treatment, evaluated 7 days after inoculation
Plasmopara viticola = test: Example I: in vivo preventive test on Plasmopara viticola (grapevine); details: 144 h, 10 ppm of active ingredient, preventive spray on young plants, evaluated 6 days after inoculation, read-out: Eff. %
Experimental: In Vivo Preventive Test on Plasmopara viticola (Grapevine)
To produce a suitable preparation of active compound, 1 part by weight of active compound is mixed with the stated amounts of solvent and emulsifier, and the concentrate is diluted with water to the desired concentration.
To test for preventive activity, young plants are sprayed with the preparation of active compound at the stated rate of application. After the spray coating has dried on, the plants are inoculated with an aqueous spore suspension of Plasmopara viticola and then remain for 1 day in an incubation cabinet at approximately 20° C. and a relative atmospheric humidity of 100%. The plant is subsequently placed for 4 days in a greenhouse at approximately 21° C. and a relative atmospheric humidity of approximately 90%. The plants are then misted and placed for 1 day in an incubation cabinet.
The test is evaluated 6 days after the inoculation. 0% means an efficacy which corresponds to that of the untreated control, while an efficacy of 100% means that no disease is observed.

Pyrenophora teres = test: Example D: in vivo preventive test on Pyrenophora teres (net blotch on barley); details: 500 ppm, preventive spray on barley plants, contamination after 24 hours, grading 14 days after contamination vs control plants
Experimental: In Vivo Preventive Test on Pyrenophora teres (Net Blotch on Barley)
(§2) The active ingredients tested are prepared by homogenization in a mixture of acetone/tween/DMSO, and then diluted with water to obtain the desired active material concentration.
Barley plants (“Plaisant” variety), sown in starter cups on a 50/50 peat soil-pozzolana substrate and grown at 22° C., are treated at the 1-leaf stage (10 cm height) by spraying with the active ingredient prepared as described above. Plants, used as controls, are treated with the mixture of acetone/tween/DMSO/water not containing the active material.
After 24 hours, the plants are contaminated by spraying the leaves with an aqueous suspension of Pyrenophora teres spores (12 000 spores per ml). The spores are collected from a 12-day-old culture. The contaminated barley plants are incubated for 48 hours at 20° C. and at 100% relative humidity, and then for 12 days at 20° C. at 70-80% relative humidity.
Grading (% of efficacy) is carried out 14 days after the contamination, in comparison with the control plants.
as §1

Puccinia recondita = test: Example E: in vivo preventive test on Puccinia recondita (brown rust on wheat); details: 500 ppm, preventive spray on wheat plants, contamination after 24 hours, grading 12 days after contamination vs control plants
Experimental: In Vivo Preventive Test on Puccinia recondita (Brown Rust on Wheat)
as §2
Wheat plants (“Scipion” variety), sown in starter cups on a 50/50 peat soil-pozzolana substrate and grown at 22° C., are treated at the 1-leaf stage (10 cm height) by spraying with the active ingredient prepared as described above. Plants, used as controls, are treated with the mixture of acetone/tween/DMSO/water not containing the active material.
(§3) After 24 hours, the plants are contaminated by spraying the leaves with an aqueous suspension of Puccinia recondita spores (100 000 spores per ml). The spores are collected from an infected plant and are suspended in water containing 2.5 ml/l of Tween 80 at 10%. The contaminated wheat plants are incubated for 24 hours at 20° C. and at 100% relative humidity, and then for 10 days at 20° C. and at 70-80% relative humidity.
Grading (% of efficacy) is carried out 12 days after the contamination, in comparison with the control plants.
as §1

Uromyces appendiculatus = test: Example C: in vivo preventive test on Uromyces appendiculatus (bean rust); details: 500 ppm, preventive spray on bean plants, contamination after 24 hours, grading 11 days after contamination vs control plants
Experimental: In Vivo Preventive Test on Uromyces appendiculatus (Bean Rust)
as §2
Bean plants (“Saxa” variety), sown in starter cups on a 50/50 peat soil-pozzolana substrate and grown at 24° C., are treated at the 2-leaf stage (9 cm height) by spraying with the active ingredient prepared as described above. Plants, used as controls, are treated with the mixture of acetone/tween/DMSO/water not containing the active material.
as §3, with “of Uromyces appendiculatus” for “of Puccinia recondita”, “spores (150” for “spores (100”, “from” for “from an”, “infected plants” for “infected plant”, “contaminated bean” for “contaminated wheat”
Grading (% of efficacy) is carried out 11 days after the contamination, in comparison with the control plants.
as §1

With `Cc1cccc(C(=NOCc2cccc(NC(=O)COc3ccccc3)n2)c2nc(=O)on2C)c1` [Example 55] the chromatographic logP [1] was 3.39, the “% efficacy” value (Botrytis cinerea) was 85% and the pest or weed control at 500 ppm (Pyricularia oryzae) was 83%. It also gave a pest or weed control at 500 ppm (Phytophthora infestans [2]) of 100%.

In the case of `Cn1oc(=O)nc1C(=NOCc1cccc(NCC2CCCCC2)n1)c1ccccc1` [Example 4], the chromatographic logP [1] is reported as 2.44, the Eff. % (Phytophthora infestans [3]) is reported as 95% and the pest or weed control at 10 ppm (Plasmopara viticola) is reported as 94%.

`CCCCCCNc1cccc(CON=C(c2ccccc2)c2nc(=O)on2C)n1` [Example 5] showed a chromatographic logP [1] of 2.2, an Eff. % (Phytophthora infestans [3]) of 95% and a pest or weed control at 10 ppm (Plasmopara viticola) of 96%.

In the case of `COc1cccc(C(=NOCc2cccc(NC(=O)COc3ccccc3)n2)c2nc(=O)o[nH]2)c1` [Example 45], the chromatographic logP [1] is reported as 3.17, the “% efficacy” value (Pyrenophora teres) is reported as 71% and the pest or weed control at 500 ppm (Phytophthora infestans [2]) is reported as 88%.

In the case of `CCCC(C)C(=O)Nc1cccc(CON=C(c2ccccc2)c2nc(=O)on2C)n1` (centres unmarked) [Example 18], the “% efficacy” value (Puccinia recondita) is reported as 78%, the chromatographic logP [1] is reported as 3.19 and the pest or weed control at 500 ppm (Phytophthora infestans [2]) is reported as 100%.

`Cn1oc(=O)nc1C(=NOCc1cccc(NCCc2ccccc2)n1)c1ccccc1` [Example 7] gave a chromatographic logP [1] of 2.23, an Eff. % (Phytophthora infestans [3]) of 95% and a pest or weed control at 10 ppm (Plasmopara viticola) of 96%.

For `Cn1oc(=O)nc1/C(=N\OCc1cccc(NC(=O)OC(C)(C)C)n1)c1ccccc1` [Example 2, tert-butyl {6-[({[(Z)-(2-methyl-5-oxo-2,5-dihydro-1,2,4-oxadiazol-3-yl)(phenyl)methylene]amino}oxy)methyl]pyridin-2-yl}carbamate], the chromatographic logP [1] was 3.31, the Eff. % (Phytophthora infestans [3]) was 100% and the pest or weed control at 10 ppm (Plasmopara viticola) was 100%.

In the case of `COc1cccc(C(=NOCc2cccc(NC(=O)OC(C)(C)C)n2)c2nc(=O)on2C)c1` [Example 22], the “% efficacy” value (Puccinia recondita) is reported as 94% and the chromatographic logP [1] is reported as 3.39.

Work on `CCCCOCCNc1cccc(CON=C(c2ccccc2)c2nc(=O)on2C)n1` [Example 6] yielded a chromatographic logP [1] of 2.13 and an Eff. % (Phytophthora infestans [3]) of 95%.

With `Cn1oc(=O)nc1C(=NOCc1cccc(NC(=O)C(C)(C)C)n1)c1ccccc1` [Example 9] the “% efficacy” value (Puccinia recondita) was 71%, the chromatographic logP [1] was 2.86 and the pest or weed control at 500 ppm (Pyricularia oryzae) was 71%. For the same molecule, the pest or weed control at 500 ppm (Phytophthora infestans [2]) was 99%.

For `Cn1oc(=O)nc1C(=NOCc1cccc(NC(=O)c2cccc(F)c2)n1)c1ccccc1` [Example 10], the chromatographic logP [1] was 3.11, the “% efficacy” value (Botrytis cinerea) was 71% and the pest or weed control at 500 ppm (Pyricularia oryzae) was 79%. For the same molecule, the pest or weed control at 500 ppm (Phytophthora infestans [2]) was 99%.

For `COc1ccc(CC(=O)Nc2cccc(CON=C(c3ccccc3)c3nc(=O)on3C)n2)cc1` [Example 16], the “% efficacy” value (Puccinia recondita) was 89%, the “% efficacy” value (Uromyces appendiculatus) was 81% and the chromatographic logP [1] was 2.92. The pest or weed control at 10 ppm (Plasmopara viticola) was 94% and the pest or weed control at 500 ppm (Phytophthora infestans [2]) was 100%.

With `Cn1oc(=O)nc1C(=NOCc1cccc(NC(=O)OCc2ccccc2)n1)c1ccccc1` [Example 17] the “% efficacy” value (Puccinia recondita) was 83%, the chromatographic logP [1] was 3.41 and the pest or weed control at 10 ppm (Plasmopara viticola) was 82%. It also gave a pest or weed control at 500 ppm (Phytophthora infestans [2]) of 100%.

In the case of `CC(C)CC(=O)Nc1cccc(CON=C(c2ccccc2)c2nc(=O)on2C)n1` [Example 19], the “% efficacy” value (Puccinia recondita) is reported as 89%, the chromatographic logP [1] is reported as 2.82 and the pest or weed control at 500 ppm (Phytophthora infestans [2]) is reported as 100%.

In the case of `C#CCC(C)(C)OC(=O)Nc1cccc(CO/N=C(/c2ccccc2)c2nc(=O)on2C)n1` [Example 35, 2-methylpent-4-yn-2-yl {6-[({[(Z)-(2-methyl-5-oxo-2,5-dihydro-1,2,4-oxadiazol-3-yl)(phenyl)methylene]amino}oxy)methyl]pyridin-2-yl}carbamate], the chromatographic logP [1] is reported as 3.31, the “% efficacy” value (Botrytis cinerea) is reported as 90% and the pest or weed control at 10 ppm (Plasmopara viticola) is reported as 100%. For the same molecule, the pest or weed control at 500 ppm (Phytophthora infestans [2]) was 100%.

`C#CCCOC(=O)Nc1cccc(CO/N=C(/c2ccccc2)c2nc(=O)on2C)n1` [Example 1, but-3-yn-1-yl {6-[({[(Z)-(2-methyl-5-oxo-2,5-dihydro-1,2,4-oxadiazol-3-yl)(phenyl)methylene]amino}oxy)methyl]pyridin-2-yl}carbamate] showed a chromatographic logP [1] of 2.71, an Eff. % (Phytophthora infestans [3]) of 98% and a pest or weed control at 10 ppm (Plasmopara viticola) of 99%.
